The record followed here is PubChem BioAssay (NCI).

Test systems include A549 NSCLC; HCC-2998 colon; HCT-116 colon; HL-60(TB) leukemia; HOP-62 NSCLC; KM12 colon; LOX IMVI melanoma; MCF7 breast; NCI-H226 lung; NCI-H460 lung; OVCAR-4 ovarian; PC-3 prostate; RPMI-8226 leukemia; SN12C renal; SNB-75 CNS; SR leukemia; SW-620 colon; U251 CNS; HOP-92 NSCLC; NCI/ADR-RES ovarian.
Common to all, as to assay: NCI anticancer screen, dose series, 48 h

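Compound exposure: 48 hours, 5 concentrations, 96-well plates. Definition used: TGI = concentration required for complete inhibition of growth.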

Consider `C1=CCC[C@@H]2CN3CCCC/C=C\CCCC[C@H]4C[C@H](CN(CCCCCCCC1)C4)[C@H]2CC3`, for which the TGI in the experiment with A549 NSCLC came to 17.8 µM; in the experiment with HCC-2998 colon, 14.4 µM; with HCT-116 colon, 16.3 µM; in the experiment with HL-60(TB) leukemia, 28.4 µM; in the experiment with HOP-62 NSCLC, 15.6 µM; in the experiment on KM12 colon it was 15.6 µM. The TGI in the experiment with LOX IMVI melanoma was 16 µM; in the experiment with MCF7 breast, 16.4 µM; with NCI-H226 lung, greater than 50 µM; with NCI-H460 lung, 18.7 µM; in the experiment with OVCAR-4 ovarian, 26.8 µM; with PC-3 prostate, 41.2 µM. The TGI in the experiment on RPMI-8226 leukemia is 16.7 µM; in the experiment with SN12C renal, 21 µM; with SNB-75 CNS it was 16.5 µM; with SR leukemia, 20.1 µM; in the experiment with SW-620 colon it was 16.4 µM; in the experiment on U251 CNS, 15.4 µM.

Turning to `CCOc1ccccc1Nc1ccc(N)cc1S(=O)(=O)O`, the TGI in the experiment on A549 NSCLC, in the experiment on HCC-2998 colon, in the experiment on HCT-116 colon, in the experiment on HOP-62 NSCLC, with HOP-92 NSCLC and in the experiment on KM12 colon was greater than 100 µM throughout. Besides, the TGI with LOX IMVI melanoma, in the experiment with NCI-H226 lung, with NCI-H460 lung, in the experiment on NCI/ADR-RES ovarian, in the experiment with OVCAR-4 ovarian and in the experiment on PC-3 prostate was greater than 100 µM throughout. Further, the TGI in the experiment on SN12C renal, with SNB-75 CNS, with SR leukemia, in the experiment on SW-620 colon and with U251 CNS was greater than 100 µM in each case.

`Cc1oc2nc(N(C)C)nc(NN)c2c1C`: the TGI in the experiment on A549 NSCLC, in the experiment on HCC-2998 colon, in the experiment with HCT-116 colon, in the experiment on HL-60(TB) leukemia, with HOP-62 NSCLC and in the experiment on HOP-92 NSCLC was greater than 100 µM in each case. For the same compound, the TGI with KM12 colon, in the experiment on NCI-H226 lung, in the experiment with NCI-H460 lung, in the experiment on NCI/ADR-RES ovarian, in the experiment on OVCAR-4 ovarian and in the experiment with PC-3 prostate was greater than 100 µM each time. In addition, the TGI with RPMI-8226 leukemia, in the experiment on SN12C renal, with SNB-75 CNS, in the experiment with SW-620 colon and in the experiment on U251 CNS was greater than 100 µM in each case.

Take `CSc1nc(-c2ccccc2)nc(C(C#N)C#N)n1`: the TGI in the experiment with A549 NSCLC, in the experiment on HCC-2998 colon, with HCT-116 colon, with HL-60(TB) leukemia, with HOP-62 NSCLC and in the experiment on HOP-92 NSCLC was greater than 100 µM in each case. Also, the TGI with KM12 colon, in the experiment on LOX IMVI melanoma, with MCF7 breast, in the experiment with NCI-H226 lung, in the experiment with NCI/ADR-RES ovarian and in the experiment on OVCAR-4 ovarian was greater than 100 µM throughout. Besides, the TGI with PC-3 prostate, in the experiment with RPMI-8226 leukemia, with SN12C renal, in the experiment with SNB-75 CNS, in the experiment with SW-620 colon and in the experiment with U251 CNS was greater than 100 µM each time.

Turning to `O=C(c1ccccc1)N(CCCCNC(=O)C(F)(F)F)CCCNC(=O)C(F)(F)F`, the TGI with A549 NSCLC, in the experiment with HCC-2998 colon, in the experiment with HCT-116 colon, in the experiment on HL-60(TB) leukemia, in the experiment with HOP-92 NSCLC and with KM12 colon was greater than 100 µM each time. In addition, the TGI in the experiment with LOX IMVI melanoma, in the experiment with MCF7 breast, with NCI-H226 lung, in the experiment on NCI-H460 lung, with NCI/ADR-RES ovarian and in the experiment with OVCAR-4 ovarian was greater than 100 µM each time. For the same compound, the TGI in the experiment on RPMI-8226 leukemia, in the experiment with SN12C renal, in the experiment with SNB-75 CNS, in the experiment with SR leukemia, in the experiment with SW-620 colon and in the experiment on U251 CNS was greater than 100 µM each time.

Take `COc1ccc(NC(=O)C(C#N)=C(SC)SC)cc1`: the TGI in the experiment on A549 NSCLC was greater than 100 µM; in the experiment on HCC-2998 colon it was greater than 100 µM; with HCT-116 colon, greater than 100 µM; in the experiment with HL-60(TB) leukemia it was greater than 100 µM; with HOP-62 NSCLC, greater than 100 µM; in the experiment on HOP-92 NSCLC, 55.6 µM. Further, the TGI with LOX IMVI melanoma, with MCF7 breast, in the experiment with NCI-H226 lung, in the experiment with NCI-H460 lung, in the experiment with OVCAR-4 ovarian and with PC-3 prostate was greater than 100 µM in each case. Moreover, the TGI with RPMI-8226 leukemia, in the experiment with SN12C renal, in the experiment on SR leukemia, in the experiment with SW-620 colon and in the experiment on U251 CNS was greater than 100 µM in each case.

On to `CN(CCNC(=O)c1nn(-c2ccc(Cl)cc2Cl)c2c1Cc1ccccc1-2)CCNC(=O)c1nn(-c2ccc(Cl)cc2Cl)c2c1Cc1ccccc1-2`, for which the TGI with A549 NSCLC is 28.8 µM; in the experiment with HCC-2998 colon it was 3.26 µM; in the experiment with HCT-116 colon it was 4.45 µM; in the experiment with HL-60(TB) leukemia, 3.57 µM; in the experiment on HOP-62 NSCLC it was greater than 45.8 µM; with HOP-92 NSCLC it was 4.88 µM. The TGI in the experiment with KM12 colon is greater than 100 µM; in the experiment on MCF7 breast, 8.31 µM; with NCI-H460 lung, 4.01 µM; in the experiment on NCI/ADR-RES ovarian, 14.9 µM; in the experiment with OVCAR-4 ovarian, greater than 20 µM; in the experiment with PC-3 prostate it was greater than 100 µM. Also, the TGI in the experiment with RPMI-8226 leukemia is 4.5 µM; in the experiment on SN12C renal, 20.4 µM; in the experiment on SNB-75 CNS, greater than 48.2 µM; with SW-620 colon, 4.88 µM; in the experiment on U251 CNS, 7.27 µM.

For the compound `CN(C)/C=C/c1c2c(nc3ccccc13)C(=O)c1cccnc1C2=O`, the TGI was 2.59 µM in the experiment with A549 NSCLC; 2.6 µM in the experiment on HCC-2998 colon; 0.697 µM in the experiment with HCT-116 colon; 2.53 µM with HL-60(TB) leukemia; 0.435 µM with HOP-62 NSCLC; 11.5 µM with HOP-92 NSCLC. Also, the TGI in the experiment with KM12 colon turned out to be 1.56 µM; in the experiment on NCI-H460 lung, 0.532 µM; in the experiment on NCI/ADR-RES ovarian it was 1.9 µM; with OVCAR-4 ovarian, 4.01 µM; with PC-3 prostate, 11.1 µM; with RPMI-8226 leukemia, 6.27 µM. In addition, the TGI with SN12C renal was 2.57 µM; with SNB-75 CNS, 4.66 µM; in the experiment with SR leukemia, 0.907 µM; in the experiment with SW-620 colon, 1.48 µM; with U251 CNS, 5.9 µM.
